Where two headings read alike, the source gives them in different places.
What was measured:
[1] = biological target: ErbB2 with Exon 20 YVMA insertion (HER2-YVMA) (Homo sapiens (Human), UniProt P04626, INS775YVMA); test: Cellular phosphorylation assay, constitutive ErbB2 phosphorylation (Y1196) in engineered NIH 3T3 cells, Assay 4; type: cell-based
How it was run: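 Engineered NIH 3T3 cells expressing HER2-YVMA treated with compounds 1 h at 37 °C, then formaldehyde-fixed and methanol-permeabilized. pErbB2 Y1196 detected by in-cell infrared immunofluorescence, normalized to GAPDH. IC50 from the normalized curves.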

[2] = biological target: EGFR (Homo sapiens (Human), UniProt P00533); test: ErbB enzyme assay (CisBio HTRF KinEASE-TK), Assay 3; type: biochemical
How it was run: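 Inhibition is measured as reduced peptide phosphorylation by HTRF KinEASE-TK at 1 mM ATP and 250 nM substrate, 30 min at 22 °C. Values are IC50s from a 4-parameter logistic fit.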

[3] = biological target: ErbB2 WT (Homo sapiens (Human), UniProt P04626); test: ErbB enzyme assay (CisBio HTRF KinEASE-TK), Assay 2; type: biochemical
How it was run: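 ErbB2 phosphorylates 250 nM biotin-TK substrate at 1 mM ATP in 25 mM HEPES pH 7.4, 10 mM MgCl2, 0.01% Triton X-100 and 2% DMSO, for 30 min at 22 °C. Product is detected by HTRF with Sa-XL665 and TK-Ab-Cryptate. Percent of control is set by DMSO-only wells and pre-quenched wells.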

[4] = biological target: ErbB2 insYVMA (HER2-YVMA, SEQ ID NO: 2) (Homo sapiens, UniProt P04626, INS775YVMA/P1170A); test: biochemical; details: ErbB2 insYVMA enzyme assay
[5] = biological target: EGFR wild type (EGFR WT) (Homo sapiens (Human), UniProt P00533); test: Cellular phosphorylation assay, EGF-stimulated EGFR phosphorylation in engineered NIH 3T3 cells, Phospho-EGFR DuoSet IC ELISA, Assay 5; type: cell-based
How it was run: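 NIH 3T3 cells expressing EGFR WT (20,000/well, attached overnight) were exposed to serially diluted compound for 1 h at 37 °C, then stimulated with 100 ng/ml rEGF for 10 min. Phospho-EGFR in lysates measured by sandwich ELISA optical density; IC50 from curves.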

Chain of ErbB2 with Exon 20 YVMA insertion (HER2-YVMA) (P04626 other isoform, or with tags, fused parts or gaps ins YVMA behind 775): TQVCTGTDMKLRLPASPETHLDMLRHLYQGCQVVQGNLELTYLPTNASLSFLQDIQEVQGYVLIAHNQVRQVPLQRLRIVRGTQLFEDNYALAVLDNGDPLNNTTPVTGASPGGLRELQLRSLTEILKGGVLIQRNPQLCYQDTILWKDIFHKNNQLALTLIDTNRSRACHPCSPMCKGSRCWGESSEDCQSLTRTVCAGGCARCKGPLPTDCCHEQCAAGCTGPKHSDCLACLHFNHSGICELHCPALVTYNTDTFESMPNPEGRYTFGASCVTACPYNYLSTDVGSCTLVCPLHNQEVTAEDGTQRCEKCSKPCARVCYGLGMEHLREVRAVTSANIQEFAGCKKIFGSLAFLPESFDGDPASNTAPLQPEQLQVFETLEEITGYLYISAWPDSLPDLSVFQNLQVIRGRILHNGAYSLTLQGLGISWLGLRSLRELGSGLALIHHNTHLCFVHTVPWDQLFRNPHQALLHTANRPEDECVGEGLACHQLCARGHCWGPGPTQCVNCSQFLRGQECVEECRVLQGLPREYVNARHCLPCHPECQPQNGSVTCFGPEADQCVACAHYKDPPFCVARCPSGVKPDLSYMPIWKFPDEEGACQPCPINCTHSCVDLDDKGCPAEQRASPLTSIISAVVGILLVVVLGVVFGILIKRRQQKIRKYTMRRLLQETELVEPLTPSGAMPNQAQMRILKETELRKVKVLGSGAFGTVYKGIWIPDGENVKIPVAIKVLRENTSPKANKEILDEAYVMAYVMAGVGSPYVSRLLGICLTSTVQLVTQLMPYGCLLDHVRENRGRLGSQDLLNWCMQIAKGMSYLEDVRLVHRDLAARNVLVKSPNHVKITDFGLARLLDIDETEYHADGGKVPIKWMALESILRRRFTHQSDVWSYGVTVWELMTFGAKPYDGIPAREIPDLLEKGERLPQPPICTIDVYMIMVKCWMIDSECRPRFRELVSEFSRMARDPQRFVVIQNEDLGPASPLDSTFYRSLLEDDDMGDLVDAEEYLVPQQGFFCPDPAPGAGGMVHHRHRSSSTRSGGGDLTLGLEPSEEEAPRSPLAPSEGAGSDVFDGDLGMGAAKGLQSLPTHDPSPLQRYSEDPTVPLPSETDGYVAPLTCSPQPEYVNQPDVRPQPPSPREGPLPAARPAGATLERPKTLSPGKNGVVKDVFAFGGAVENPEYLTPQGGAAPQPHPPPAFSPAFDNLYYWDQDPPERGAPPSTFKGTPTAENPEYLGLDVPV
Chain of ErbB2 WT (P04626 23-1255): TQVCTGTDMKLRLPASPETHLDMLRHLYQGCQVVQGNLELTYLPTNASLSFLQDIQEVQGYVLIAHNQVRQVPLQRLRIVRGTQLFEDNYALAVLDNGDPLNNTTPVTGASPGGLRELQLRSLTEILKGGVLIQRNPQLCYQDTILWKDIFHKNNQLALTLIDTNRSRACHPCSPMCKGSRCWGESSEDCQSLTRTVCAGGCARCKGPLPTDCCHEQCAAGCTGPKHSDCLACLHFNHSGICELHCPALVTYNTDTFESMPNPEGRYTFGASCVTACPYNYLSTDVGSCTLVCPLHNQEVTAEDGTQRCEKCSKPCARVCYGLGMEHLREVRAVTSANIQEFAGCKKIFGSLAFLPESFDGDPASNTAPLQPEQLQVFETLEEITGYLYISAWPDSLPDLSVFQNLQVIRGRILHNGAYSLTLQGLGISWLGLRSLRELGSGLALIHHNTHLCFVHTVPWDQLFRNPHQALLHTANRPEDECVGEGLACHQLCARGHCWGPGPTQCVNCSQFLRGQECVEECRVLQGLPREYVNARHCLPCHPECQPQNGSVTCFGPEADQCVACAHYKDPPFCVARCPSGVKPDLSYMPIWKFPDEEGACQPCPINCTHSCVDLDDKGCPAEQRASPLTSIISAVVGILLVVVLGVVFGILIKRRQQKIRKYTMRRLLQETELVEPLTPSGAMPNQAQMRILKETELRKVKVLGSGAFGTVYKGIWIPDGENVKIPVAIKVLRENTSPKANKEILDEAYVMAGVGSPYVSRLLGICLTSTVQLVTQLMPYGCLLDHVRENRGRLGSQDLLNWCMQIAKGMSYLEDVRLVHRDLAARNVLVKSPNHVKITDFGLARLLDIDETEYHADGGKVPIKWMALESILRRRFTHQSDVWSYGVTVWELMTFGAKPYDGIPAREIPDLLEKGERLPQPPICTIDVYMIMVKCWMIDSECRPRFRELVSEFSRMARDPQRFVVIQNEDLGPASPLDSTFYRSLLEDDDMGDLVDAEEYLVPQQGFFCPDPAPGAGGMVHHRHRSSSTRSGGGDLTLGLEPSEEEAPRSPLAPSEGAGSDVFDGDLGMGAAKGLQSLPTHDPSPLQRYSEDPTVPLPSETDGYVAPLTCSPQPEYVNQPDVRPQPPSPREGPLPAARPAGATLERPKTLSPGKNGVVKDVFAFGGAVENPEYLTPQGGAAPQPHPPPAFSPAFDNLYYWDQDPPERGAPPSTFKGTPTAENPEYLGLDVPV
Chain of ErbB2 insYVMA (HER2-YVMA, SEQ ID NO: 2) (P04626 with tags, fused parts or gaps INS775YVMA/P1170A limits assumed): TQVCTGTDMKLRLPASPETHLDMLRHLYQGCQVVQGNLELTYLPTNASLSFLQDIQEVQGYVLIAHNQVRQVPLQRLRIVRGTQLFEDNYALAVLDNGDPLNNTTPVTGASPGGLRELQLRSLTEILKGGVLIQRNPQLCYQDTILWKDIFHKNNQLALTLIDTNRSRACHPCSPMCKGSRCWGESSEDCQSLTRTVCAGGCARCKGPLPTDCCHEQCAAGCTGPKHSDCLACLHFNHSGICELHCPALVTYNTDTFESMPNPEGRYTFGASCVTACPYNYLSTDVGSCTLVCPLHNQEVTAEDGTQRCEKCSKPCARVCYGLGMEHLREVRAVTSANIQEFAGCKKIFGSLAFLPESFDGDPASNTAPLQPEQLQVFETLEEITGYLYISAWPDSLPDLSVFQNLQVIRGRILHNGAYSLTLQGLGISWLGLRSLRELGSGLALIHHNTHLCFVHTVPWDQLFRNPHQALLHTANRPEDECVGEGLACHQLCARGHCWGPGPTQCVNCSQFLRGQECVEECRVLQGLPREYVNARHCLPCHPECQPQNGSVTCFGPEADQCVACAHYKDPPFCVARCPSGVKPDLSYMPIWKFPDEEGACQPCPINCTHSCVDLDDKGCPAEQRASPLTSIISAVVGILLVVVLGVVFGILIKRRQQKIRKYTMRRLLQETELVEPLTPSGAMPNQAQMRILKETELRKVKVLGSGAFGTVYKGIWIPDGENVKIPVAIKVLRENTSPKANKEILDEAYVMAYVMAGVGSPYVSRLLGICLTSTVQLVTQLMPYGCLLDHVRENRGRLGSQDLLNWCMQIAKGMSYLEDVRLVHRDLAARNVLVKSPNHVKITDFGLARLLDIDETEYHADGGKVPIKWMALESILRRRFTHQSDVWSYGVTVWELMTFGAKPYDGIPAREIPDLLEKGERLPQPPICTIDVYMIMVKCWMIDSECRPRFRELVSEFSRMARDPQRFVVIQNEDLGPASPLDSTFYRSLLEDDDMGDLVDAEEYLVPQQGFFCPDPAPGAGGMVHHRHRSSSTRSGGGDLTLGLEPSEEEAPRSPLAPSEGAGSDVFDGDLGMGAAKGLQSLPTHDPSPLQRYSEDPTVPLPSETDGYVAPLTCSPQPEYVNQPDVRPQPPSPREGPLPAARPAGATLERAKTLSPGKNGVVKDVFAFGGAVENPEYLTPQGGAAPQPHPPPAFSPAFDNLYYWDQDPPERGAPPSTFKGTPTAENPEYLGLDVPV
Chain of EGFR (P00533 25-1210): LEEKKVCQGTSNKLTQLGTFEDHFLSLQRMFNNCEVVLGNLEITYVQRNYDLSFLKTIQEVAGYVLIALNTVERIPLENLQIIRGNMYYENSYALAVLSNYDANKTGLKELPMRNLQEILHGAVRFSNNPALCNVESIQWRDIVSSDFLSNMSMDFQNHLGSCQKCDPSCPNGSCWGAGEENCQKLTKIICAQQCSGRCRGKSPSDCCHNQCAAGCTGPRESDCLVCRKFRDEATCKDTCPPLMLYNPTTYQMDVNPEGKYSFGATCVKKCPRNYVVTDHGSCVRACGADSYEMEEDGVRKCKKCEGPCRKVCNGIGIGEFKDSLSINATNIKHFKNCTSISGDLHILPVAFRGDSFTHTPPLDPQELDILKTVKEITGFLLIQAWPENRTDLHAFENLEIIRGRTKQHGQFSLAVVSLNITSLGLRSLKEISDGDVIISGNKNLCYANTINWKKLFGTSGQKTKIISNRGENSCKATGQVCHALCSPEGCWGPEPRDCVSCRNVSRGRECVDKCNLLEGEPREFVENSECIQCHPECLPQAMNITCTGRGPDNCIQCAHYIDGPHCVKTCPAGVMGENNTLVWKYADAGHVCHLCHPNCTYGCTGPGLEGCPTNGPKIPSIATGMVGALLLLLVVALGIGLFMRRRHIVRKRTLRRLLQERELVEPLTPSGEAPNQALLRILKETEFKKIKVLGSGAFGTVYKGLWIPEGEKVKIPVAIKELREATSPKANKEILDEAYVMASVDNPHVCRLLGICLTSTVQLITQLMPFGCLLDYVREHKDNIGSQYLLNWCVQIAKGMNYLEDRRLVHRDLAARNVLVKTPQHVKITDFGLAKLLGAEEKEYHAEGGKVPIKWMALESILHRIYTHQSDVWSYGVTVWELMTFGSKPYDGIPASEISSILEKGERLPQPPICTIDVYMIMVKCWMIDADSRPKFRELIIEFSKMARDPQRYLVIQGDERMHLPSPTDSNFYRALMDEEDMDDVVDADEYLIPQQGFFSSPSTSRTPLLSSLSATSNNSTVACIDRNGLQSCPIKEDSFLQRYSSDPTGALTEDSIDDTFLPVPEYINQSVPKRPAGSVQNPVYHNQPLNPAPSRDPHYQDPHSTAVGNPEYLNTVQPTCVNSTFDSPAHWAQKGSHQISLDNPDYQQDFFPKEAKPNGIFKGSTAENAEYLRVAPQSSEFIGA

Row | Compound | IC50 [1] [nM] | IC50 [2] [nM] | IC50 [3] [nM] | IC50 ([4]; read-out: Assay 1 IC50) [nM] | IC50 [5] [nM] | IC50 ([4]; Assay 1 IC50 (nM)) [nM]
1 | Cc1cc(Nc2ncnc3cnc(N4CCC4)nc23)ccc1Oc1ccn2ncnc2c1 [Example 379] | 356 | ≥ 10000 | 82.1 | 25.7 | ≥ 5000 | 
2 | N#C[C@@H]1CCN(c2ncc3ncnc(Nc4ccc(Oc5ccn6ncnc6c5)c(Cl)c4)c3n2)C1 [Example 387] | 163 | ≥ 10000 | 132 | 70 | ≥ 5000 | 
3 | Cn1cnc2cc(Oc3ccc(Nc4ncnc5cnc(N6CCN(CC(F)F)CC6)nc45)cc3Cl)ccc21 [Example 484] | 22.7 | ≥ 10000 | 124 | 34.4 | ≥ 5000 | 
4 | Cc1cc(Nc2ncnc3cnc(N4CC5CCOC5C4)nc23)ccc1Oc1ccc2c(c1)ncn2C (stereo not shown) [Example 462] | 18.6 | ≥ 10000 | 41.5 | 20.3 | ≥ 5000 | 
5 | CN(c1ncc2ncnc(Nc3ccc(Oc4ccn5ncnc5c4)c(Cl)c3)c2n1)[C@H]1CCOC1 [Example 133, (S)—N8-(4-([1,2,4]triazolo[1,5-a]pyridin-7-yloxy)-3-chlorophenyl)-N2-methyl-N2-(tetrahydrofuran-3-yl)pyrimido[5,4-d]pyrimidine-2,8-diamine] | 55.4 | 5720 | 26.2 | 10.8 | ≥ 5000 | 
6 | Cc1cc(Nc2ncnc3cnc(N4CC5(CCC5O)C4)nc23)ccc1Oc1ccc2c(c1)ncn2C (stereo not shown) [Example 465] | 67.8 | ≥ 10000 | 47.6 | 44.3 | ≥ 5000 | 
7 | Clc1cc(Nc2ncnc3cnc(N4CCOCC4)nc23)ccc1Oc1ccn2ncnc2c1 [Example 409] | 43 | 3530 | 32.1 | 18.3 | ≥ 5000 | 
8 | Cc1cc(Nc2ncnc3cnc(N4CC5(CCOC5)C4)nc23)ccc1Oc1ccn2ncnc2c1 [Example 373] | 2480 | ≥ 10000 | 307 | 81.6 | ≥ 5000 | 
9 | Cc1cc(Nc2ncnc3cnc(N4CCN(C)S4(=O)=O)nc23)ccc1Oc1ccc2c(c1)ncn2C [Example 29, 2-methyl-5-(8-((3-methyl-4-((1-methyl-1H-benzo[d]imidazol-5-yl)oxy)phenyl)amino)pyrimido[5,4-d]pyrimidin-2-yl)-1,2,5-thiadiazolidine 1,1-dioxide] | 20.6 | ≥ 10000 | 65.9 | 37.8 | ≥ 5000 | 
10 | CON1CCN(c2ncc3ncnc(Nc4ccc(Oc5ccc6c(c5)ncn6C)c(C)c4F)c3n2)CC1 [Example 142, N-(2-fluoro-3-methyl-4-((1-methyl-1H-benzo[d]imidazol-5-yl)oxy)phenyl)-6-(4-methoxypiperazin-1-yl)pyrimido[5,4-d]pyrimidin-4-amine 2,2,2-trifluoroacetate] | 72.7 | ≥ 10000 | 50.7 |  | ≥ 5000 | 24.2
11 | Cc1cc(Nc2ncnc3cnc(N[C@H]4CNC[C@H]4F)nc23)ccc1Oc1ccc2c(c1)ncn2C [Example 276] | 41.5 | 1360 | 13.5 | 8 | ≥ 5000 | 
12 | Cc1cc(Nc2ncnc3cnc(N4CC5(COC5)C4)nc23)ccc1Oc1ccc2c(c1)ncn2C [Example 26, N-(3-methyl-4-((1-methyl-1H-benzo[d]imidazol-5-yl)oxy)phenyl)-6-(2-oxa-6-azaspiro[3.3]heptan-6-yl)pyrimido[5,4-d]pyrimidin-4-amine] | 62.2 | ≥ 10000 | 507 | 85.6 | ≥ 5000 | 
13 | Cc1cc(Nc2ncnc3cnc(N4C[C@@H](O)C(C)(C)C4)nc23)ccc1Oc1ccc2c(c1)ncn2C [Example 468] | 87.2 | ≥ 10000 | 130 | 39.1 | ≥ 5000 | 
14 | Cc1cc(Nc2ncnc3cnc(N(C)[C@H]4C[C@H](O)C4)nc23)ccc1Oc1ccn2ncnc2c1 [Example 366] | 76.6 | 303 | 6.7 | 8.3 | ≥ 5000 | 
